Reference: patent US8367659B2, “Oxazinyl isoflavonoid compounds, medicaments and use” (Marshall Edwards, Inc., priority 2007, dated 2013)
pEC50: −log10 of the molar value.

Test system: low density lipoprotein (LDL)
Experiment: Inhibition of Cu2+-induced oxidation of LDL (lipid peroxides, FOX assay)
Format: biochemical
Experimental: Blood was collected by venipuncture and plasma separated by centrifugation. LDL was then isolated from plasma using a 4-step sodium chloride density gradient and ultracentrifuged at 200,000 g for 20 hours at 4° C. The collect LDL was purified by passage through gel filtration PD10 column to remove excess salt and EDTA, and stored in the dark at 4° C. to prevent auto-oxidation and used with two weeks of isolation. The LDL cholesterol content was measure using a standard enzymatic method and protein concentration determined by the Lowry method using BSA as the standard.
[…] Oxidation reactions were initiated by the addition of freshly prepared Cu^2+ solution, such that the final concentration of CuSO4 was 5 μM. […] The extent of lipoprotein oxidation was determined by measuring the formation of lipid-peroxides on aliquots removed every 30-minute over a 3-hour period. Peroxides were determined at each time point by the ferrous oxidation-xylenol orange (FOX) assay using standard hydrogen peroxide curve (5 to 200 μM). Compounds (1) and (2) were examined in at least two separate experiments performed on separate days.

`CC(c1ccccc1)N1COc2cc3c(cc2C1)C=C(c1ccc(O)cc1)CO3` (stereo not shown) [Compound 2, 4-(3-(1-Phenylethyl)-2,3,4,8-tetrahydrochromeno[6,7-e][1,3]oxazin-7-yl)phenol] was tested, and the pEC50 (LDL 0.1 mg/mL, CuSO4 5 μM, read-out: EC50, concentration at which 50% of the LDL oxidation was inhibited) was 6.20, the lipid peroxide formation (LDL 0.1 mg/ml + compound 0.1 μM + Cu^++ 5 μM, 0 min) was 10.5 ± 2.93 and the lipid peroxide formation (LDL 0.1 mg/ml + compound 0.1 μM + Cu^++ 5 μM, 30 min) was 13.9 ± 2.51. It also gave a lipid peroxide formation (LDL 0.1 mg/ml + compound 0.1 μM + Cu^++ 5 μM, 60 min) of 23.7 ± 4.71, a lipid peroxide formation (LDL 0.1 mg/ml + compound 0.1 μM + Cu^++ 5 μM, 90 min) of 75.1 ± 8.43 and a lipid peroxide formation (LDL 0.1 mg/ml + compound 0.1 μM + Cu^++ 5 μM, 120 min) of 138.5 ± 2.94. The lipid peroxide formation (LDL 0.1 mg/ml + compound 0.1 μM + Cu^++ 5 μM, 180 min) was 173.7 ± 34.4, the lipid peroxide formation (LDL 0.1 mg/ml + compound 1.0 μM + Cu^++ 5 μM, 0 min) was 10.22 ± 2.9 and the lipid peroxide formation (LDL 0.1 mg/ml + compound 1.0 μM + Cu^++ 5 μM, 30 min) was 11.62 ± 2.4. It also gave a lipid peroxide formation (LDL 0.1 mg/ml + compound 1.0 μM + Cu^++ 5 μM, 60 min) of 12.08 ± 3.2, a lipid peroxide formation (LDL 0.1 mg/ml + compound 1.0 μM + Cu^++ 5 μM, 90 min) of 18.25 ± 3.2 and a lipid peroxide formation (LDL 0.1 mg/ml + compound 1.0 μM + Cu^++ 5 μM, 120 min) of 35.12 ± 0.4. It also gave a lipid peroxide formation (LDL 0.1 mg/ml + compound 1.0 μM + Cu^++ 5 μM, 180 min) of 133.1 ± 18.3, a lipid peroxide formation (LDL 0.1 mg/ml + compound 10 μM + Cu^++ 5 μM, 0 min) of 10.20 ± 2.6 and a lipid peroxide formation (LDL 0.1 mg/ml + compound 10 μM + Cu^++ 5 μM, 30 min) of 15.99 ± 0.1. For the same compound, the lipid peroxide formation (LDL 0.1 mg/ml + compound 10 μM + Cu^++ 5 μM, 60 min) was 18.26 ± 0.8, the lipid peroxide formation (LDL 0.1 mg/ml + compound 10 μM + Cu^++ 5 μM, 90 min) was 20.64 ± 1.3 and the lipid peroxide formation (LDL 0.1 mg/ml + compound 10 μM + Cu^++ 5 μM, 120 min) was 23.68 ± 1.2. The lipid peroxide formation (LDL 0.1 mg/ml + compound 10 μM + Cu^++ 5 μM, 180 min) was 24.6 ± 21.9, the lipid peroxide formation (LDL 0.1 mg/ml + compound 100 μM + Cu^++ 5 μM, 0 min) was 12.09 ± 2.8 and the lipid peroxide formation (LDL 0.1 mg/ml + compound 100 μM + Cu^++ 5 μM, 30 min) was 15.93 ± 5.4. For the same compound, the lipid peroxide formation (LDL 0.1 mg/ml + compound 100 μM + Cu^++ 5 μM, 60 min) was 19.40 ± 7.8, the lipid peroxide formation (LDL 0.1 mg/ml + compound 100 μM + Cu^++ 5 μM, 90 min) was 23.27 ± 8.7 and the lipid peroxide formation (LDL 0.1 mg/ml + compound 100 μM + Cu^++ 5 μM, 120 min) was 28.76 ± 5.0. The lipid peroxide formation (LDL 0.1 mg/ml + compound 100 μM + Cu^++ 5 μM, 180 min) was 28.6 ± 12.9, the lipid peroxide formation (compound 100 μM + Cu^++ 5 μM, without LDL, 0 min) was 7.69 ± 3.8 and the lipid peroxide formation (compound 100 μM + Cu^++ 5 μM, without LDL, 30 min) was 14.97 ± 0.4. It also gave a lipid peroxide formation (compound 100 μM + Cu^++ 5 μM, without LDL, 60 min) of 19.19 ± 2.1, a lipid peroxide formation (compound 100 μM + Cu^++ 5 μM, without LDL, 90 min) of 24.30 ± 4.3 and a lipid peroxide formation (compound 100 μM + Cu^++ 5 μM, without LDL, 120 min) of 28.31 ± 2.8. The lipid peroxide formation (compound 100 μM + Cu^++ 5 μM, without LDL, 180 min) was 33.20 ± 6.7.
